Key:
[1] = system: barstar gene under EcR-based switch; test: barstar expression by qRT-PCR in leaf and floral tissues of ID06 plants; format: in vivo, Arabidopsis; conditions: 250 nM vs water
[2] = system: GUS reporter gene; test: Ligand inducible GUS silencing (Agro-infiltration, X-gluc staining) in DCL1/DCL2/GUS hairpin petunia lines; format: cell-based
Protocol: Assay for Agro-infiltration. Transient β-glucoronidase (GUS) expression, was modified from previously reported literature (Wroblewski et al. (2005) Plant Biotechnol. J. 3(2):259-273). Specifically, Agrobacterium tumefaciens strain EHA105 containing an appropriate plasmid for GUS expression was grown overnight to an OD600 of 0.8 and re-suspended in induction buffer with the following components: MS basal medium (Sigma-Aldrich), 10 mM MgCl2, and 100 uM acetosyringone. After 4 hours, induced culture suspension was infiltrated into detached fully expanded petunia leaves (approximately 0.1 mL/leaf). Leaves were incubated in a humidity chamber at 28° C. for 3 days.
Histochemical X-gluc staining for GUS visualization. […]
Ligand inducible hairpin expression for dsRNA synthesis targeting two Botrytis cinerea genes and the GUS reporter gene. Ligand inducible expression of the DCL1/DCL2/GUS hairpin cassette was evaluated using the transient Agrobacterium-mediated GUS expression as described above only detached leaves were sprayed with 50 uM ligand or mock treated with water prior to Agro-infiltration. […]
Eight independent Switch-DCL1/DCL2/GUS petunia lines were evaluated by detaching 6 leaves from each line and splitting into two treatments. […]

[3] = system: FT gene under EcR-based gene switch; test: FT expression by qRT-PCR over the time-course of induction in ID14-50 plants; format: in vivo, Arabidopsis; conditions: homozygous ID14-50 T3 plants, all concentrations (10, 50, 250 nM), long and short day photoperiod
From the text: FT expression was characterized at five time-points over the time-course of induction. One leaf per plant was collected at time-zero before ligand application corresponding to 17 and 24 days old plants in long and short day photoperiod, at one day after treatment started corresponding to 18 and 25 days old plants, four days after treatment started corresponding to 21 and 28 days old plants, seven days after ligand application started corresponding to 24 and 31 days old plants and, eleven days after treatment started corresponding to 28 and 35 days old plants for RNA extraction using a Qiagen RNA easy kit. First-strand cDNA was synthesized from the total RNA to be used as template for qRT-PCR analysis. qRT-PCR was set-up as previously described for T2 characterization. […] For most homozygous plants FT expression stayed relatively high and to a similar level from day one to day seven post-treatment before going down a little by day eleven post-treatment. For all time points, tissue was collected at the end of a period of induction, right before treatment was re-applied. […] FT expression in mock-treated plants as well as null and mutant treated plants stayed very low for the most part over the eleven days of treatment. In all genotypes, there is a large variation in FT expression among individual plants in the groups of siblings.

## COc1cccc(C(=O)NN(C(=O)c2cc(C)cc(C)c2)C(C)(C)C)c1C [methoxyfenozide, 3-methoxy-2-methylbenzoic acid 2-(3,5-dimethylbenzoyl)-2-(1,1-dimethylethyl)hydrazide]
[1]
  expression of barstar: dramatically increased
[2]; 50 uM ligand vs water
  GUS expression in constitutive controls DCL-25 and DCL-6: did not show any ligand induced changes to GUS expression
[2]; 50 uM sprayed on detached leaves twice, Agro-infiltration at 3 days, X-gluc staining 3 days later, listed as ligand
  GUS expression in Switch DCL-8 line: ligand induced GUS silencing
[3]
  FT expression: increases as early as one day post-treatment

Reference: US12344852B2, “Control of phenotype in plants” (GREENVENUS, LLC, priority 2016, dated 2025)
